Assay results from ChEMBL document CHEMBL1909046, “DrugMatrix in vitro pharmacology data”.

Tests used:
[1] = DRUGMATRIX: Atrial Natriuretic Factor (ANF) radioligand binding (ligand: [125I] ANF (rat)); type: cell membranes, Cavia porcellus, Dunkin-Hartley, Adrenal gland, Membrane; details: Not Active = under 50% inhibition at 10 µM
[2] = biological target: T1, Alpha-1A adrenergic receptor (Rattus norvegicus, UniProt P43140); assay: DRUGMATRIX: Alpha-1A adrenergic receptor radioligand binding (ligand: prazosin); type: cell membranes, Wistar, Submaxillary gland, Membrane; details: Not Active = under 50% inhibition at 10 µM
T1 sequence (P43140 whole entry): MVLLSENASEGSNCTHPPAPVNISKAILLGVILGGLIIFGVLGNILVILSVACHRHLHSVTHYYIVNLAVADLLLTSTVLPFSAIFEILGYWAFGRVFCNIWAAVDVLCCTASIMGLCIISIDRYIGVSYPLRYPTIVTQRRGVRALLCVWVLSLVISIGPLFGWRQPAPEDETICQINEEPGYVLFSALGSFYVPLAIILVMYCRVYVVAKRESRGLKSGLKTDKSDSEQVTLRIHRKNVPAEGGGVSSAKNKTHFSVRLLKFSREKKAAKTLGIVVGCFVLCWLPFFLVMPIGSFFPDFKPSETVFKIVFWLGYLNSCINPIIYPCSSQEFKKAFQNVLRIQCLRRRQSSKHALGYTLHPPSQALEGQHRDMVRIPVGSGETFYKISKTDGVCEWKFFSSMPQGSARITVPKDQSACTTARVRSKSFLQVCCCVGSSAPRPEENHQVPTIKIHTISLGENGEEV

D(4) dopamine receptor = biological target: T2, D(4) dopamine receptor (Homo sapiens, UniProt P21917); assay: DRUGMATRIX: Dopamine D4.2 radioligand binding (ligand: [3H] Spiperone); type: cell membranes, CHO-K1, Membrane; details: cho-k1; Not Active = under 50% inhibition at 10 µM
T2 sequence (P21917 whole entry): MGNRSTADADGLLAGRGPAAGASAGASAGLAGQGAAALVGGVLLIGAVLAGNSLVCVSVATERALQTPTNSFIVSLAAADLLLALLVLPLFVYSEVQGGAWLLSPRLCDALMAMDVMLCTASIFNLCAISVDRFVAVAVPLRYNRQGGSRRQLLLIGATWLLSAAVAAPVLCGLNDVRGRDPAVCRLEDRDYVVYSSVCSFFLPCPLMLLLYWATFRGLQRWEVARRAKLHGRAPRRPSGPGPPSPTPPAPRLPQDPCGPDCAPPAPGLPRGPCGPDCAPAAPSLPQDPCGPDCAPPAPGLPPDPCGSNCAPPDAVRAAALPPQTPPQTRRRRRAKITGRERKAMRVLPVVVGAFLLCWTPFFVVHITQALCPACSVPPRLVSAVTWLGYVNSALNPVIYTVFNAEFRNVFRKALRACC

[3] = biological target: T3, Neuropeptide Y receptor type 1 (Homo sapiens, UniProt P25929); type: cell membranes, Membrane; details: sk-n-mc; also: in other assays of this panel Not Active means under 50% inhibition at 10 µM
T3 sequence (P25929 whole entry): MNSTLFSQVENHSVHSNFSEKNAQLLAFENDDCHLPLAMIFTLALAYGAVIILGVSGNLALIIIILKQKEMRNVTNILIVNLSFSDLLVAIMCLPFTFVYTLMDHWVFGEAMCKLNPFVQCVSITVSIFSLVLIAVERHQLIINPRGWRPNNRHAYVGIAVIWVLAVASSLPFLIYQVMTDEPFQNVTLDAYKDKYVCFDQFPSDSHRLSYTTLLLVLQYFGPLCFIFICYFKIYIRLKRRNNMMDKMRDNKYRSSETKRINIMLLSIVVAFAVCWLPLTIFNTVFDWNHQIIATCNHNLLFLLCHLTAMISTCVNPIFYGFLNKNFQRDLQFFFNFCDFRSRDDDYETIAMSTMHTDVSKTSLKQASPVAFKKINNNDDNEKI

[4] = biological target: Mitogen-activated protein kinase 3 (Homo sapiens, UniProt P27361); assay: DRUGMATRIX: Protein Serine/Threonine Kinase, ERK1 enzyme inhibition (substrate: Myelin Basic Protein); design: species or system Escherichia coli; details: Not Active = under 50% inhibition at 10 µM
Cytochrome P450 2D6 = Cytochrome P450 2D6 (Homo sapiens, UniProt P10635); details: bti-tn-5b1-4; also: in other assays of this panel Not Active means under 50% inhibition at 10 µM
[5] = biological target: T4, C-C chemokine receptor type 4 (Homo sapiens, UniProt P51679); type: cell membranes, Membrane; details: chem-1; also: in other assays of this panel Not Active means under 50% inhibition at 10 µM
T4 sequence (P51679 whole entry): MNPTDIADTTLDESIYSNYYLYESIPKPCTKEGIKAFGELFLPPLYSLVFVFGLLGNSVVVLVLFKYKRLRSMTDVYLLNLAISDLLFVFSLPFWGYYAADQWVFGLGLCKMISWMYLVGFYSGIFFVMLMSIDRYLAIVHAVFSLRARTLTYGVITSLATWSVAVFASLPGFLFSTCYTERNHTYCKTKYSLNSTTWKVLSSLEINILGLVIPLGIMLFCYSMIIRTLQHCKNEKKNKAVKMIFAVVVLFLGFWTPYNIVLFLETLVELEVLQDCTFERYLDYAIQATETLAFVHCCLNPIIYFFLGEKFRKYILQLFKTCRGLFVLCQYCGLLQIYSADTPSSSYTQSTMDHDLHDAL

[6] = biological target: Mitogen-activated protein kinase 14 (Homo sapiens, UniProt Q16539); design: species or system Escherichia coli;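 also: inhibition of p38alpha enzyme activity in a biochemical kinase assay, with myelin basic protein serving as substrate; in other assays of this panel Not Active means under 50% inhibition at 10 µM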
Sequence of Mitogen-activated protein kinase 14 (Q16539 whole entry): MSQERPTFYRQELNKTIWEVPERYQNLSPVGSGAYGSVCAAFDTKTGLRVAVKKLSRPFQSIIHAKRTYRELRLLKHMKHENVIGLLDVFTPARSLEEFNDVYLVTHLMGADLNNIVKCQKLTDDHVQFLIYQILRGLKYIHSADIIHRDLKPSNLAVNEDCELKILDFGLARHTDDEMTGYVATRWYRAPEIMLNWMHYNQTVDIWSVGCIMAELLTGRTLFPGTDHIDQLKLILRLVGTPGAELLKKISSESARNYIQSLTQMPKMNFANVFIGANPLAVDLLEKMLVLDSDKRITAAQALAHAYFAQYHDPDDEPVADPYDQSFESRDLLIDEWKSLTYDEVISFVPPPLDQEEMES

Sequence of Mitogen-activated protein kinase 3 (P27361 whole entry): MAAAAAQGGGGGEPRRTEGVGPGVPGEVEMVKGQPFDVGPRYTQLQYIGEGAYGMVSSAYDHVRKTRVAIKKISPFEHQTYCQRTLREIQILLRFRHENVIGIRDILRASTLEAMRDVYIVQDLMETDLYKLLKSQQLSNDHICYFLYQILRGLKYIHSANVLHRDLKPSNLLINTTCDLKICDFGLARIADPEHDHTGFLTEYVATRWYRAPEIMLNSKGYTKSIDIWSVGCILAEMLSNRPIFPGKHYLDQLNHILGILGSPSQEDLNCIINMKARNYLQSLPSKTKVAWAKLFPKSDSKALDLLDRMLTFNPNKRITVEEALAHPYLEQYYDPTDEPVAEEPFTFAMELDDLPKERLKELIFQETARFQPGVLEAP
Sequence of Cytochrome P450 2D6 (P10635 whole entry): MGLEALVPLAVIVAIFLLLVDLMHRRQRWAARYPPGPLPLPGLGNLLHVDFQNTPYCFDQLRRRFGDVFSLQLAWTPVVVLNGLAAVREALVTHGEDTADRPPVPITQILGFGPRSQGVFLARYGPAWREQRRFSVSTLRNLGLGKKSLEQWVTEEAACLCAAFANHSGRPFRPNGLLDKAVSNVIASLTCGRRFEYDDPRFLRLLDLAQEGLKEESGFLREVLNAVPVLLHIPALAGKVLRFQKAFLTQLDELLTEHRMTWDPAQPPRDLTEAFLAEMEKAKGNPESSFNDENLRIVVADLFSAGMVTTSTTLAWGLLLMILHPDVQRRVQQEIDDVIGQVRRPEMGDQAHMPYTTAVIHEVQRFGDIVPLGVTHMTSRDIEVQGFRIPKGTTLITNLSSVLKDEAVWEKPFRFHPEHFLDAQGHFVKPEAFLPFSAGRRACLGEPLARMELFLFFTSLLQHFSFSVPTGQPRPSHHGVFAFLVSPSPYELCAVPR

| Compound | IC50 [1] | Ki [1] | IC50 [2] | IC50 (D(4) dopamine receptor) | IC50 [3] | IC50 [4] | IC50 (Cytochrome P450 2D6) | Ki (Cytochrome P450 2D6) | IC50 [5] | IC50 [6] | IC50 ([6]; read-out: IC50) [µM] | IC50 ([4]; read-out: IC50) [µM] | IC50 ([2]; read-out: IC50) [µM] | Ki ([2]; read-out: Ki) [µM] |
| --- | --- | --- | --- | --- | --- | --- | --- | --- | --- | --- | --- | --- | --- | --- |
| CC[C@H]1OC(=O)[C@H](C)[C@@H](O[C@H]2C[C@@](C)(OC)[C@@H](O)[C@H](C)O2)[C@H](C)[C@@H](O[C@@H]2O[C@H](C)C[C@H](N(C)C)[C@H]2O)[C@](C)(O)C[C@@H](C)CN(C)[C@H](C)[C@@H](O)[C@]1(C)O [AZITHROMYCIN] | Not Active | Not Active | Not Active | Not Active | Not Active | Not Active | Not Active | Not Active | Not Active | Not Active | – | – | – | – |
| CC(C)(C)c1ccc(S(=O)(=O)/C=C/C#N)cc1 [BAY-11-7085] | Not Active | Not Active | Not Active | Not Active | Not Active | Not Active | Not Active | Not Active | Not Active | Not Active | – | – | – | – |
| CCc1oc2ccccc2c1C(=O)c1cc(Br)c(O)c(Br)c1 [BENZBROMARONE] | Not Active | Not Active | Not Active | Not Active | Not Active | Not Active | Not Active | Not Active | Not Active | – | 1.24 | – | – | – |
| O=c1cc(-c2ccccc2)oc2ccc3ccccc3c12 [BETA-NAPHTHOFLAVONE] | Not Active | Not Active | Not Active | Not Active | Not Active | – | Not Active | Not Active | Not Active | Not Active | – | 5.47 | – | – |
| CC(C)C[C@H]1C(=O)N2CCC[C@H]2[C@]2(O)O[C@](NC(=O)[C@@H]3C=C4c5cccc6[nH]c(Br)c(c56)C[C@H]4N(C)C3)(C(C)C)C(=O)N12 [BROMOCRIPTINE] | Not Active | Not Active | – | Not Active | Not Active | Not Active | Not Active | Not Active | Not Active | Not Active | – | – | 0.00696 | 0.00282 |
| CS(=O)(=O)OCCCCOS(C)(=O)=O [BUSULFAN] | Not Active | Not Active | Not Active | Not Active | Not Active | Not Active | Not Active | Not Active | Not Active | Not Active | – | – | – | – |
| O=C(/C=C/c1ccc(O)c(O)c1)OCCc1ccccc1 [CAFFEIC ACID PHENETHYL ESTER] | Not Active | Not Active | Not Active | Not Active | Not Active | Not Active | Not Active | Not Active | Not Active | Not Active | – | – | – | – |
| COc1cc(CNC(=O)CCCC/C=C/C(C)C)ccc1O [CAPSAICIN] | Not Active | Not Active | Not Active | Not Active | Not Active | Not Active | Not Active | Not Active | Not Active | Not Active | – | – | – | – |
| NC(=O)N1c2ccccc2C=Cc2ccccc21 [CARBAMAZEPINE] | Not Active | Not Active | Not Active | Not Active | Not Active | Not Active | Not Active | Not Active | Not Active | Not Active | – | – | – | – |
| CCOC(=O)n1ccn(C)c1=S [CARBIMAZOLE] | Not Active | Not Active | Not Active | Not Active | Not Active | Not Active | Not Active | Not Active | Not Active | Not Active | – | – | – | – |
| Oc1ccccc1O [CATECHOL] | Not Active | Not Active | Not Active | Not Active | Not Active | Not Active | Not Active | Not Active | Not Active | Not Active | – | – | – | – |
| CO[C@@]1(NC(=O)CSCC#N)C(=O)N2C(C(=O)O)=C(CSc3nnnn3C)CS[C@@H]21 [CEFMETAZOLE] | Not Active | Not Active | Not Active | Not Active | Not Active | Not Active | Not Active | Not Active | Not Active | Not Active | – | – | – | – |
| CN(C(=O)CCCOc1ccc2[nH]c(=O)ccc2c1)C1CCCCC1 [CILOSTAMIDE] | Not Active | Not Active | Not Active | Not Active | Not Active | Not Active | Not Active | Not Active | Not Active | Not Active | – | – | – | – |
| CC(C)(Oc1ccc(C2CC2(Cl)Cl)cc1)C(=O)O (stereo unspecified) [CIPROFIBRATE] | Not Active | Not Active | Not Active | Not Active | Not Active | Not Active | Not Active | Not Active | Not Active | Not Active | – | – | – | – |
| Nc1nc(Cl)nc2c1ncn2[C@H]1C[C@H](O)[C@@H](CO)O1 [CLADRIBINE] | Not Active | Not Active | Not Active | Not Active | Not Active | Not Active | Not Active | Not Active | Not Active | Not Active | – | – | – | – |
| CC[C@H]1OC(=O)[C@H](C)[C@@H](O[C@H]2C[C@@](C)(OC)[C@@H](O)[C@H](C)O2)[C@H](C)[C@@H](O[C@@H]2O[C@H](C)C[C@H](N(C)C)[C@H]2O)[C@](C)(OC)C[C@@H](C)C(=O)[C@H](C)[C@@H](O)[C@]1(C)O [CLARITHROMYCIN] | Not Active | Not Active | Not Active | Not Active | Not Active | Not Active | Not Active | Not Active | Not Active | Not Active | – | – | – | – |
| O=C(O)c1cc(=O)c2c(OCC(O)COc3cccc4oc(C(=O)O)cc(=O)c34)cccc2o1 [CROMOLYN] | Not Active | Not Active | Not Active | Not Active | Not Active | Not Active | Not Active | Not Active | Not Active | Not Active | – | – | – | – |
| O=P1(N(CCCl)CCCl)NCCCO1 (stereo unspecified) [CYCLOPHOSPHAMIDE ANHYDROUS] | Not Active | Not Active | Not Active | Not Active | Not Active | Not Active | Not Active | Not Active | Not Active | Not Active | – | – | – | – |
| CC(=O)O[C@]1(C(C)=O)CC[C@H]2[C@@H]3C=C(Cl)C4=CC(=O)[C@@H]5C[C@@H]5[C@]4(C)[C@H]3CC[C@@]21C [CYPROTERONE ACETATE] | Not Active | Not Active | Not Active | Not Active | Not Active | Not Active | Not Active | Not Active | Not Active | Not Active | – | – | – | – |
